pEC50: −log10 of the molar value. Converted amounts (≈) assume the structure as drawn.
How the values were obtained:
[1] = Lyophilisation solubility assay (LYSA), kinetic solubility; assay type: physicochemical; conditions: aqueous buffer; 0.05 M phosphate buffer (pH 6.5), from 10 mM DMSO stock after evaporation
Excerpt: The solubility of a substance can be broadly defined as the maximum amount of the substance that dissolves in a specified volume of solvent. However, it is important to understand that the solubility of a compound can vary drastically depending on the condition of the solvent (e.g. temperature and pH) and the physiochemical properties of the compound (e.g. ionisation and crystallinity). These critical factors need to be considered during solubility determination in order to generate high quality solubility data that will be useful in the progression of compounds through the discovery and development stages. The kinetic solubility of a compound is the maximum solubility of the fastest precipitating species of the compound; this is often measured using a stock solution of the compound dissolved in an organic solvent, typically dimethyl sulfoxide (DMSO), as the starting material. […] The precipitate formed, which is rarely determined during the assessment, could be any combination of various possible solid states of the compound. Given the level of supersaturation that could occur when an organic solvent is diluted in water, kinetic solubility values are typically higher than the corresponding thermodynamic (equilibrium) solubility values. Solubility assays in the early discovery process often determine kinetic solubility. The lyophilisation solubility assay (LYSA) is a high throughput kinetic solubility assay for the early drug discovery process.
Samples were prepared in duplicate from 10 mM DMSO stock solution. After evaporation of DMSO with a centrifugal vacuum evaporator, the compounds were solved in 0.05 M phosphate buffer (pH 6.5), stirred for one hour and shaken for two hours. After one night, the solutions were filtered using a microtiter filter plate. Then the filtrate and its 1/10 dilution were analyzed by HPLC-UV. […] The results were in μg/mL. […] It should be noted that metastable solid phases may form during the evaporation step, and the method might therefore produce higher solubility values than assays using the stable polymorph as the starting material.

human TLR7 = target: T1, human TLR7 (Homo sapiens, UniProt Q9NYK1); assay: HEK293-Blue-hTLR7 cells assay (SEAP reporter, NF-κB activation)
T1 sequence (Q9NYK1 27-1049): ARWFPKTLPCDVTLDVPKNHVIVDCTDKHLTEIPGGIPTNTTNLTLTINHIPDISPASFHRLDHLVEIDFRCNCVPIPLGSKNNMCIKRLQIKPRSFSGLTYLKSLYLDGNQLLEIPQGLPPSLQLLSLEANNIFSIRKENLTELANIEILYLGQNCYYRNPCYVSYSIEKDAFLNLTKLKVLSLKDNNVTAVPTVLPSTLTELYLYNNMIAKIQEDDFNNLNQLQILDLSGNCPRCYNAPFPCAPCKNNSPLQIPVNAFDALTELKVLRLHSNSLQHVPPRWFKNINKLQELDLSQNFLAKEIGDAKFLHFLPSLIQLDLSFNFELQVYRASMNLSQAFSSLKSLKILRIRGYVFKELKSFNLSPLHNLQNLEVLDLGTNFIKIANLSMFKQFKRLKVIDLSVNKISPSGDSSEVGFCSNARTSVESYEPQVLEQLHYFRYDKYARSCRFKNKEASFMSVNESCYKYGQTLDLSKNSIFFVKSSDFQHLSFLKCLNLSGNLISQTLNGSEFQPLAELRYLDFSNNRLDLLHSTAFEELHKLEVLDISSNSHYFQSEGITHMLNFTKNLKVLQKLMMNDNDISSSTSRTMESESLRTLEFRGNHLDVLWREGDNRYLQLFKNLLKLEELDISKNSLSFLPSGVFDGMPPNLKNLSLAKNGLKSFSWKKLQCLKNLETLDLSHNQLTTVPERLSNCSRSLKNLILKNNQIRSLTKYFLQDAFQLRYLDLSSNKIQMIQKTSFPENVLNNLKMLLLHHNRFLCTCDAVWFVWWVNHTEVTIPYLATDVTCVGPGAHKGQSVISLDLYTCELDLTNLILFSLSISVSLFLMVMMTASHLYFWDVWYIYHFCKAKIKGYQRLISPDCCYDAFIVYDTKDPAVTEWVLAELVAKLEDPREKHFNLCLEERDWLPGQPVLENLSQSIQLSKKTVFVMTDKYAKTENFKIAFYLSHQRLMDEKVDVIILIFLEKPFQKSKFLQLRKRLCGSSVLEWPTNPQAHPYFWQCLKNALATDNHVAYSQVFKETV
Excerpt: A stable HEK293-Blue-h TLR7 cell line was purchased from InvivoGen (Cat. #: hkb-htlr7, San Diego, California, USA). These cells were designed for studying the stimulation of human TLR7 by monitoring the activation of NF-κB. A SEAP (secreted embryonic alkaline phosphatase) reporter gene was placed under the control of the IFN-β minimal promoter fused to five NF-κB and AP-1-binding sites. The SEAP was induced by activating NF-κB and AP-1 via stimulating HEK-Blue hTLR7 cells with TLR7 ligands. Therefore the reporter expression was regulated by the NF-κB promoter upon stimulation of human TLR7 for 20 hrs. The cell culture supernatant SEAP reporter activity was determined using QUANTI-Blue™ kit (Cat. #: rep-qb1, Invivogen, San Diego, Ca, USA) at a wavelength of 640 nm, a detection medium that turns purple or blue in the presence of alkaline phosphatase.
HEK293-Blue-hTLR7 cells were incubated at a density of 250,000˜450,000 cells/mL in a volume of 180 μL in a 96-well plate in Dulbecco's Modified Eagle's medium (DMEM) containing 4.5 g/L glucose, 50 U/mL penicillin, 50 mg/mL streptomycin, 100 mg/mL Normocin, 2 mM L-glutamine, 10% (V/V) heat-inactivated fetal bovine serum for 24 hrs. Then the HEK293-Blue-hTLR7 cells were incubated with addition of 20 μL test compound in a serial dilution in the presence of final DMSO at 1% and perform incubation under 37° C. in a CO2 incubator for 20 hrs.

[2] = Thermodynamic solubility assay (THESA), equilibrium solubility; assay type: physicochemical; conditions: 22 °C, aqueous buffer, thermodynamic from solid; 50 mM phosphate buffer (pH 6.5), room temperature (22±2° C.)
Method: The thermodynamic (equilibrium) solubility is the saturation solubility of a compound at the end of the dissolution process, where the dissolved compound is in equilibrium with the undissolved material in excess. The thermodynamic solubility is determined by dispensing a solid compound into a solvent. This is often deemed as the true solubility of the compound and is a critical piece of information in formulation development. The thermodynamic solubility assay (THESA) is a widely used tool for the measurement of equilibrium solubility for the later drug discovery process and is considered as a gold standard solubility assay.
Approximately 1-2 mg of each compound was added into 300 μL of 50 mM phosphate buffer (pH 6.5) at room temperature (22±2° C.). Each sample is placed in a microanalysis tube, which was sonicated for 1 h and shaken for 2 h. All suspensions were left overnight (about 16 h). On the next day, the samples were filtered into a V-bottom plate with a micronic filterplate to separate the solid material from the solution. Then, all solutions were diluted into 96 well V-bottom microplates and analyzed by UPLC-UV. The calibration line was established by UPLC using 5 different dilutions of the compound in a DMSO stock solution, made in micronic tubes (concentration approximately 1 mg/mL). Dilutions took place with DMSO. From this regression equation the solubility of the compound was determined. In cases where the drug was completely dissolved in the buffer, the value for equilibrium solubility was assumed to be higher than the value determined by UPLC and reported as such.

Row | solubility kinetic [1] [µg/mL] | pEC50 (human TLR7) | solubility thermodynamic [2] [µg/mL] | SMILES
1 | > 540 | 7.42 | – | CP(C)(=O)c1nc(N)c2[nH]c(=O)n(Cc3ccc(NCCN4CCCC4)nc3)c2n1 [Example 7, 6-amino-2-dimethylphosphoryl-9-[[6-(2-pyrrolidin-1-ylethylamino)-3-pyridyl]methyl]-7H-purin-8-one]
2 | > 650 | 7.68 | – | CN(C)CC1CCN(c2ccc(Cn3c(=O)[nH]c4c(N)nc(P(C)(C)=O)nc43)cn2)C1 (stereo not shown) [Example 9, 6-amino-9-[[6-[3-[(dimethylamino)methyl]pyrrolidin-1-yl]-3-pyridyl]methyl]-2-dimethylphosphoryl-7H-purin-8-one]
3 | > 620 | 7.55 | – | CN1CCC(Nc2ccc(Cn3c(=O)[nH]c4c(N)nc(P(C)(C)=O)nc43)cn2)C1 (stereo not shown) [Example 11, 6-amino-2-dimethylphosphoryl-9-[[6-[(1-methylpyrrolidin-3-yl)amino]-3-pyridyl]methyl]-7H-purin-8-one]
4 | > 560 | 7.08 | – | CCN(C)CCNc1ccc(Cn2c(=O)[nH]c3c(N)nc(P(C)(C)=O)nc32)cn1 [Example 12, 6-amino-2-dimethylphosphoryl-9-[[6-[2-[ethyl(methyl)amino]ethylamino]-3-pyridyl]methyl]-7H-purin-8-one]
5 | > 540 | 7.35 | – | CC[P@@](C)(=O)c1nc(N)c2[nH]c(=O)n(Cc3ccc(NCCNC)nc3)c2n1 [Example 17, 6-amino-2-[(R)-ethyl(methyl)phosphoryl]-9-[[6-[2-(methylamino)ethylamino]-3-pyridyl]methyl]-7H-purin-8-one]
6 | > 580 | 8.05 | 2370 (≈ 5.47 mM) | CCP(=O)(CC)c1nc(N)c2[nH]c(=O)n(Cc3ccc(NCCN(C)C)nc3)c2n1 [Example 19, 6-amino-2-diethylphosphoryl-9-[[6-[2-(dimethylamino)ethylamino]-3-pyridyl]methyl]-7H-purin-8-one]

The remaining lines, values behind:

Row | SMILES | solubility kinetic [1] [µg/mL] | pEC50 (human TLR7) | solubility thermodynamic [2] [µg/mL]
7 | CP(C)(=O)c1nc(N)c2[nH]c(=O)n(Cc3ccc(N4CCC(N)C4)nc3)c2n1 (stereo not shown) [Example 3, 6-amino-9-[[6-(3-aminopyrrolidin-1-yl)-3-pyridyl]methyl]-2-dimethylphosphoryl-7H-purin-8-one] | > 600 | 7.55 | –
8 | CC1(C)CN(c2ccc(Cn3c(=O)[nH]c4c(N)nc(P(C)(C)=O)nc43)cn2)CCN1 [Example 4, 6-amino-2-dimethylphosphoryl-9-[[6-(3,3-dimethylpiperazin-1-yl)-3-pyridyl]methyl]-7H-purin-8-one] | > 640 | 8.00 | –
9 | CP(C)(=O)c1nc(N)c2[nH]c(=O)n(Cc3ccc(N4CC5CCC4CN5)nc3)c2n1 (stereo not shown) [Example 5, 6-amino-9-[[6-(2,5-diazabicyclo[2.2.2]octan-2-yl)-3-pyridyl]methyl]-2-dimethylphosphoryl-7H-purin-8-one] | > 570 | 7.92 | –
10 | CP(C)(=O)c1nc(N)c2[nH]c(=O)n(Cc3ccc(N4CC5CNCC5C4)nc3)c2n1 (stereo not shown) [Example 6, 9-[[6-(2,3,3a,4,6,6a-hexahydro-1H-pyrrolo[3,4-c]pyrrol-5-yl)-3-pyridyl]methyl]-6-amino-2-dimethylphosphoryl-7H-purin-8-one] | > 630 | 7.57 | –
11 | CP(C)(=O)c1nc(N)c2[nH]c(=O)n(Cc3ccc(NC4CCOCC4)nc3)c2n1 [Example 8, 6-amino-2-dimethylphosphoryl-9-[[6-(tetrahydropyran-4-ylamino)-3-pyridyl]methyl]-7H-purin-8-one] | > 520 | 7.41 | –
12 | CN1CCOC2(CCN(c3ccc(Cn4c(=O)[nH]c5c(N)nc(P(C)(C)=O)nc54)cn3)CC2)C1 [Example 10, 6-amino-2-dimethylphosphoryl-9-[[6-(4-methyl-1-oxa-4,9-diazaspiro[5.5]undecan-9-yl)-3-pyridyl]methyl]-7H-purin-8-one] | > 650 | 7.62 | –
13 | CC[P@](C)(=O)c1nc(N)c2[nH]c(=O)n(Cc3ccc(N4CCN(C)CC4)nc3)c2n1 [Example 13-B, 6-amino-2-[(S)-ethyl(methyl)phosphoryl]-9-[[6-(4-methylpiperazin-1-yl)-3-pyridyl]methyl]-7H-purin-8-one] | > 530 | – | –
14 | CC[P@@](C)(=O)c1nc(N)c2[nH]c(=O)n(Cc3ccc(N4CCN(S(C)(=O)=O)CC4)nc3)c2n1 [Example 14-A, 6-amino-2-[(R)-ethyl(methyl)phosphoryl]-9-[[6-(4-methylsulfonylpiperazin-1-yl)-3-pyridyl]methyl]-7H-purin-8-one] | 150 | – | –
15 | CC[P@](C)(=O)c1nc(N)c2[nH]c(=O)n(Cc3ccc(N4CCN(S(C)(=O)=O)CC4)nc3)c2n1 [Example 14-B, 6-amino-2-[(S)-ethyl(methyl)phosphoryl]-9-[[6-(4-methylsulfonylpiperazin-1-yl)-3-pyridyl]methyl]-7H-purin-8-one] | 170 | – | –

Source: patent US20250215032A1, “PHOSPHORYLPURINONE COMPOUNDS FOR THE TREATMENT OF CANCER” (Hoffmann-La Roche Inc., priority 2022, published 2025)
